In ChEMBL document CHEMBL5537166, “PROTACs Targeting BRM (SMARCA2) Afford Selective In Vivo Degradation over BRG1 (SMARCA4) and Are Active in BRG1 Mutant Xenograft Tumor Models” (J Med Chem, 2024):

How the values were obtained:
[1] = target: von Hippel-Lindau disease tumor suppressor/SWI/SNF-related matrix-associated actin-dependent regulator of chromatin subfamily A member 2 (Homo sapiens, UniProt P51531+P40337); experiment: PROTAC activity at VHL/BRM in human SW1573 cells assessed as induction of […] incubated for 22 hrs by Western blotting analysis; format: cell-based
Sequence of von Hippel-Lindau disease tumor suppressor/SWI/SNF-related matrix-associated actin-dependent regulator of chromatin subfamily A member 2 (P51531 whole entry): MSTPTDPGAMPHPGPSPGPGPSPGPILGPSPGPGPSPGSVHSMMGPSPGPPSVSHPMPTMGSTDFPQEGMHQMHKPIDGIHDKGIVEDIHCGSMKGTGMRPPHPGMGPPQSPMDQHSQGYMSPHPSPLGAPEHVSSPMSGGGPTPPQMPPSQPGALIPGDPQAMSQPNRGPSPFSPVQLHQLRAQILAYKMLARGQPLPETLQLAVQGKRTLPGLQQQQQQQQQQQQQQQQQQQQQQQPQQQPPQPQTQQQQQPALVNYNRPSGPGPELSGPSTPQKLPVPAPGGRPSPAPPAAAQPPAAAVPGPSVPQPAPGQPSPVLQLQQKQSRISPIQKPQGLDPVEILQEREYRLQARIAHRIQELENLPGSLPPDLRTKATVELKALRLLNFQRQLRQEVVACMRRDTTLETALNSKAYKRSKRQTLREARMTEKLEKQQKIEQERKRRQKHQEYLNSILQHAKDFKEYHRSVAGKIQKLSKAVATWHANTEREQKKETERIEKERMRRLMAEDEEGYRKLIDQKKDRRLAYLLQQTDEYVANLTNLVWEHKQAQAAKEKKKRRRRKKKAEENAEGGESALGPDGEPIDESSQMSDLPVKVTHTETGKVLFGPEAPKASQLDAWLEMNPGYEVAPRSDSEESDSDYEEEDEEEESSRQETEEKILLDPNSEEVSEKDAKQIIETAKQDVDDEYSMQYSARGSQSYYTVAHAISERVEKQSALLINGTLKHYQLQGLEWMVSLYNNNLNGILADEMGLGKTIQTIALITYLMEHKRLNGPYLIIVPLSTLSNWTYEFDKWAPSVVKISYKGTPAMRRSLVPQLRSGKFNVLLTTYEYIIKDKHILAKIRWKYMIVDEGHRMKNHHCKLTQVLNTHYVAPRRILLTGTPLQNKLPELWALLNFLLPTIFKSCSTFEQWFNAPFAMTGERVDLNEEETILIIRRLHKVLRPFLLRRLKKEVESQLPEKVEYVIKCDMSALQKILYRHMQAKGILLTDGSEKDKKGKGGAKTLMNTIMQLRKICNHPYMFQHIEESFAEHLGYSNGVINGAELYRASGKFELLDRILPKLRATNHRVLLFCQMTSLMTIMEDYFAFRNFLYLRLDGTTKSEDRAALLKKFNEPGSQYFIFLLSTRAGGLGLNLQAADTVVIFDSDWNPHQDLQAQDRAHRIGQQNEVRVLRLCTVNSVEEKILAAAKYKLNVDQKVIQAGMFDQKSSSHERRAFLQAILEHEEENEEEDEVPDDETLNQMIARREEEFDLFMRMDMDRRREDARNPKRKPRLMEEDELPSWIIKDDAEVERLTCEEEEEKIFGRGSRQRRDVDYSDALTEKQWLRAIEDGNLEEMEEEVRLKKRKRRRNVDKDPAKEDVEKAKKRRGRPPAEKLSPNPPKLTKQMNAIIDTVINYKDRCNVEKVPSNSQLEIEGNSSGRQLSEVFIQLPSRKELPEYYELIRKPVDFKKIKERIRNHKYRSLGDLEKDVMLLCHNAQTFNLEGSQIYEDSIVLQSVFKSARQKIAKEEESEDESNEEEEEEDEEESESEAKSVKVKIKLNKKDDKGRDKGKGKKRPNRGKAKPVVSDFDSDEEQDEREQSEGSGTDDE
Sequence of von Hippel-Lindau disease tumor suppressor/SWI/SNF-related matrix-associated actin-dependent regulator of chromatin subfamily A member 2 (P40337 whole entry): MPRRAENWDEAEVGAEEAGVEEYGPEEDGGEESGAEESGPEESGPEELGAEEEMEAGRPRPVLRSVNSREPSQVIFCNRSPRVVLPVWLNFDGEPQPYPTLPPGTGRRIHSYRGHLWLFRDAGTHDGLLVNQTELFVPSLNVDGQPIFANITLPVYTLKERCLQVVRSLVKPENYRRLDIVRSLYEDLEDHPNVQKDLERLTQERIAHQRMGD

[2] = target: von Hippel-Lindau disease tumor suppressor/SWI/SNF-related matrix-associated actin-dependent regulator of chromatin subfamily A member 4 (Homo sapiens, UniProt P51532+P40337); experiment: PROTAC activity at VHL/ BRG1 in human SW1573 cells assessed as induction of BRG1 degradation incubated for 22 hrs by Western blotting analysis; format: cell-based
Sequence of von Hippel-Lindau disease tumor suppressor/SWI/SNF-related matrix-associated actin-dependent regulator of chromatin subfamily A member 4 (P51532 whole entry): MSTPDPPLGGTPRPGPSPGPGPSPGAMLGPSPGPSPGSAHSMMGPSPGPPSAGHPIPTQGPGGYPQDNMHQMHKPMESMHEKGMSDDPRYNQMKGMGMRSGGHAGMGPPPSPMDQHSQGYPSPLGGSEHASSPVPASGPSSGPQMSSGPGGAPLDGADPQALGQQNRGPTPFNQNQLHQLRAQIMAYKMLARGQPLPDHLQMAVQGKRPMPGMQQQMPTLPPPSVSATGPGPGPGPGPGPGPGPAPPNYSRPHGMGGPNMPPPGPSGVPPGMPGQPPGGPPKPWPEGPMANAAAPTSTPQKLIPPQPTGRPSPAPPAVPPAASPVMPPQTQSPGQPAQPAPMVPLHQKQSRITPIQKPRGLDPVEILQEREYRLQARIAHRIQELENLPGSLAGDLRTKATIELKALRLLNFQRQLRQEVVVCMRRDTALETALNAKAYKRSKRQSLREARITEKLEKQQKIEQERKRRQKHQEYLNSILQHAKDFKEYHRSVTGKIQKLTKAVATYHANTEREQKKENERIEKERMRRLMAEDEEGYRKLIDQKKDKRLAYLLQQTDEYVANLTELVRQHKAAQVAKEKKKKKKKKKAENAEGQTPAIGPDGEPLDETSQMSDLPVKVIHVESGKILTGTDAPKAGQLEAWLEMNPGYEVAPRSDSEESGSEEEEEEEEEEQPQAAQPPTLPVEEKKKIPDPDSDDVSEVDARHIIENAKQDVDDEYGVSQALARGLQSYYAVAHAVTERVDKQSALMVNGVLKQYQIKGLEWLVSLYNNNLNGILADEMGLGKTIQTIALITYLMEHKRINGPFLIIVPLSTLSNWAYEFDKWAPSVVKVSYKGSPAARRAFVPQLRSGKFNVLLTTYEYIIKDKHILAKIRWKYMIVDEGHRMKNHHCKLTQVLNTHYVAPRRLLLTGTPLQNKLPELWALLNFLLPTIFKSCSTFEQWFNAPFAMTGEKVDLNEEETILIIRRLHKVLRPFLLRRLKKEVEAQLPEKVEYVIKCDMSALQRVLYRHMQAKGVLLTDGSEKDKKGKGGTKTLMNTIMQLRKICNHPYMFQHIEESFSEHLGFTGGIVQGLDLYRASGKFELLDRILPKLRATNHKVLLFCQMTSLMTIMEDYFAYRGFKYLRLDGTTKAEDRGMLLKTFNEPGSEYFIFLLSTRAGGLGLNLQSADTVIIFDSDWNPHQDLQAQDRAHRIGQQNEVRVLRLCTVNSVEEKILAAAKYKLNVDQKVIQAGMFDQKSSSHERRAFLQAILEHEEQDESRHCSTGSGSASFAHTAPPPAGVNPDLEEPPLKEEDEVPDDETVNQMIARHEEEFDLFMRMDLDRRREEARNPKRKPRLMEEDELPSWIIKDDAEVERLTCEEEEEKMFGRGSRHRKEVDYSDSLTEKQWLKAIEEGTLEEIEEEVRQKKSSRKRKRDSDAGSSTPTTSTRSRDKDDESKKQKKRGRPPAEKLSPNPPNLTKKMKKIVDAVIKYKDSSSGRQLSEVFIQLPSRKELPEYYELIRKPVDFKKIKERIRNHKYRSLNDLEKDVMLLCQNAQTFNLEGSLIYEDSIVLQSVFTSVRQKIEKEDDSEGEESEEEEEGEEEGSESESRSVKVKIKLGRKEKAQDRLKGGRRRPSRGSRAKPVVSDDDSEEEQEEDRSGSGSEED
Sequence of von Hippel-Lindau disease tumor suppressor/SWI/SNF-related matrix-associated actin-dependent regulator of chromatin subfamily A member 4 (P40337 whole entry): as the sequence (P40337 whole entry) above

Homo sapiens = species on record: Homo sapiens; experiment: Ratio of DC50 for VHL/ BRG1 in human SW1573 cells to DC50 for VHL/BRM in human SW1573 cells; format: cell-based
NCI-H1944 = experiment: Antiproliferative activity against BRM-dependent human NCI-H1944 cells assessed as growth inhibition incubated for 7 days by celltiter glo 2.0 assay; format: functional; details: NCI-H1944, 168 h, time 7 day
Calu-6 = experiment: Antiproliferative activity against human Calu-6 cells assessed as growth inhibition incubated for 7 days by celltiter glo 2.0 assay; format: functional; details: Calu-6, 168 h, time 7 day
[3] = Metabolic stability in human liver microsome assessed as hepatic extraction ratio measured upto 60 mins by LC-MS/MS analysis; format: ADME; details: liver microsomes
[4] = Plasma protein binding in mouse incubated for 15 mins by LC-MS/MS analysis; format: ADME, cell-free; details: read-out: PPB (converted)
[5] = Clearance in mouse at 1 mg/kg, iv measured upto 60 mins by LC-MS/MS analysis; format: ADME, organism-based; details: in vivo, 1 h
[6] = Half life in mouse at 1 mg/kg, iv measured upto 60 mins by LC-MS/MS analysis; format: ADME, organism-based; details: in vivo
[7] = Drug concentration in mouse plasma measured for 24 hrs; format: ADME, cell-free
Mus musculus [8] = experiment: In-vivo PROTAC activity at BRM/VHL in CD-1 mouse xenografted with human HCC2302 cells at 20 mg/kg, iv measured for 96 hrs; format: functional
Mus musculus [9] = experiment: In-vivo PROTAC activity at BRM/VHL in CD-1 mouse xenografted with Murine stromal cell line at 20 mg/kg, iv measured for 96 hrs; format: functional
[10] = Drug concentration in mouse tumor at 20 mg/kg, ip measured for 96 hrs; format: ADME, organism-based, Neoplasm; details: read-out: Ct
[11] = target: T1, SWI/SNF-related matrix-associated actin-dependent regulator of chromatin subfamily A member 2 (Homo sapiens, UniProt P51531); experiment: Binding affinity to his-tagged BRM bromodomain (unknown origin) by alpha-LISA assay
T1 sequence (P51531 whole entry): as the sequence (P51531 whole entry) above

[12] = target: T1, SWI/SNF-related matrix-associated actin-dependent regulator of chromatin subfamily A member 2; experiment: Binding affinity to his-tagged BRM bromodomain (unknown origin) assessed as dissociation constant

Compound	DC50 [1]	DC50 [2]	Ratio (Homo sapiens)	GI50 (NCI-H1944)	GI50 (Calu-6)	hepatic extraction ratio at 1 h [3]	fraction unbound at 0.25 h [4]	clearance [5]	half-life [6]	concentration at 24 h [7]	Activity (Mus musculus [8])	Activity (Mus musculus [9])	concentration at 96 h [10]	IC50 [11]	Kd [12]
Cc1ncsc1-c1ccc(CNC(=O)[C@@H]2C[C@@H](O)CN2C(=O)[C@@H](NC(=O)COCCOCCOCCOc2cc(N3C4CCC3CN(c3cc(-c5ccccc5O)nnc3N)C4)ccn2)C(C)(C)C)cc1	32 nM	703 nM	7.8	–	–	–	–	–	–	–	–	–	–	–	–
Cc1ncsc1-c1ccc(CNC(=O)[C@@H]2C[C@@H](O)CN2C(=O)[C@@H](c2cc(OCCOCCOCCOc3cc(N4C5CCC4CN(c4cc(-c6ccccc6O)nnc4N)C5)ccn3)no2)C(C)C)cc1	0.76 nM	5.9 nM	2.2	–	–	–	–	–	–	–	–	–	–	–	–
Cc1ncsc1-c1ccc([C@H](C)NC(=O)[C@@H]2C[C@@H](O)CN2C(=O)[C@@H](c2cc(N3CCC(O[C@H]4C[C@H](Oc5cc(N6C7CCC6CN(c6cc(-c8ccccc8O)nnc6N)C7)ccn5)C4)CC3)no2)C(C)C)cc1	0.14 nM	1.8 nM	13	0.3 nM	4.4 nM	0.14	0.019	9.2 mL/min/kg	1.4 h	112 nM	70%	22%	175 ng/g	–	–
Cc1ncsc1-c1ccc([C@H](C)NC(=O)[C@@H]2C[C@@H](O)CN2C(=O)[C@@H](c2cc(OCCN3CCN(CCOc4cc(N5C6CCC5CN(c5cc(-c7ccccc7O)nnc5N)C6)ccn4)C[C@@H]3C)no2)C(C)C)cc1	0.11 nM	2.7 nM	25	0.72 nM	38 nM	0.83	–	–	–	–	–	–	–	–	–
Cc1ncsc1-c1ccc([C@H](C)NC(=O)[C@@H]2C[C@@H](O)CN2C(=O)[C@@H](c2cc(OCCN3CCN(CCOc4cc(N5C6CCC5CN(c5cc(-c7ccccc7O)nnc5N)C6)ccn4)[C@H](C)C3)no2)C(C)C)cc1	0.055 nM	0.71 nM	13	0.26 nM	12 nM	0.83	0.015	–	–	22 nM	0%	0%	76 ng/g	–	–
COc1cc(N2C3CCC2CN(c2cc(-c4ccccc4O)nnc2N)C3)ccn1	–	–	–	> 300 nM	> 300 nM	–	–	–	–	–	–	–	–	1.2 nM	–
Cc1ncsc1-c1ccc([C@H](C)NC(=O)[C@@H]2C[C@@H](O)CN2C(=O)[C@@H](c2cc(OCCN3CCC(O[C@H]4C[C@H](Oc5cc(N6C7CCC6CN(c6cc(-c8ccccc8)nnc6N)C7)ccn5)C4)CC3)no2)C(C)C)cc1	–	–	–	> 5000 nM	–	–	–	–	–	–	–	–	–	–	10300 nM
COc1cc(N2CCN(c3cc(-c4ccccc4O)nnc3N)CC2)ccn1	–	–	–	> 300 nM	> 300 nM	–	–	–	–	–	–	–	–	18 nM	–
Cc1ncsc1-c1ccc([C@H](C)NC(=O)[C@@H]2C[C@H](O)CN2C(=O)[C@@H](c2cc(N3CCC(CN4CCC(O[C@H]5C[C@H](Oc6cc(N7C8CCC7CN(c7cc(-c9ccccc9O)nnc7N)C8)ccn6)C5)CC4)CC3)no2)C(C)C)cc1	–	–	–	> 300 nM	–	–	–	–	–	–	–	–	–	–	–
Cc1ncsc1-c1ccc([C@H](C)NC(=O)[C@@H]2C[C@@H](O)CN2C(=O)[C@@H](c2cc(N3CCC(CN4CCC(Oc5cc(N6C7CCC6CN(c6cc(-c8ccccc8O)nnc6N)C7)ccn5)CC4)CC3)no2)C(C)C)cc1	0.053 nM	0.99 nM	–	0.23 nM	3.7 nM	0.41	0.006	6.7 mL/min/kg	6.7 h	–	83%	59%	774 ng/g	–	–
Cc1ncsc1-c1ccc(CNC(=O)[C@@H]2C[C@@H](O)CN2C(=O)[C@@H](c2cc(OCCN3CCN(CCOc4cc(N5C6CCC5CN(c5cc(-c7ccccc7O)nnc5N)C6)ccn4)CC3)no2)C(C)C)cc1	0.39 nM	9.5 nM	–	3.6 nM	62 nM	0.65	0.015	–	–	–	–	–	–	–	–
Cc1ncsc1-c1ccc([C@H](C)NC(=O)[C@@H]2C[C@@H](O)CN2C(=O)[C@@H](c2cc(N3CCC(CN4CCC(O[C@H]5C[C@H](Oc6cc(N7C8CCC7CN(c7cc(-c9ccccc9)nnc7N)C8)ccn6)C5)CC4)CC3)no2)C(C)C)cc1	–	–	–	> 5000 nM	–	–	–	–	–	–	–	–	–	–	8540 nM
Cc1ncsc1-c1ccc([C@H](C)NC(=O)[C@@H]2C[C@H](O)CN2C(=O)[C@@H](c2cc(OCCN3CCC(O[C@H]4C[C@H](Oc5cc(N6C7CCC6CN(c6cc(-c8ccccc8O)nnc6N)C7)ccn5)C4)CC3)no2)C(C)C)cc1	–	–	–	> 300 nM	–	–	–	–	–	–	–	–	–	–	–
COCCOc1cc(N2C3CCC2CN(c2cc(-c4ccccc4O)nnc2N)C3)ccn1	–	–	–	–	–	–	–	–	–	–	–	–	–	2.7 nM	–
Cc1ncsc1-c1ccc([C@H](C)NC(=O)[C@@H]2C[C@@H](O)CN2C(=O)[C@@H](c2cc(N3CCN(C[C@H]4C[C@H](Oc5cc(N6C7CCC6CN(c6cc(-c8ccccc8O)nnc6N)C7)ccn5)C4)CC3)no2)C(C)C)cc1	0.09 nM	1.3 nM	–	0.45 nM	6.8 nM	0.27	0.011	11 mL/min/kg	3.7 h	–	87%	53%	75 ng/g	–	–
Cc1ncsc1-c1ccc([C@H](C)NC(=O)[C@@H]2C[C@@H](O)CN2C(=O)[C@@H](c2cc(OCC#Cc3ccc(O[C@H]4C[C@H](Oc5cc(N6C7CCC6CN(c6cc(-c8ccccc8O)nnc6N)C7)ccn5)C4)cn3)no2)C(C)C)cc1	27 nM	5.1 nM	19	0.7 nM	28 nM	0.15	0.016	22 mL/min/kg	1.5 h	129 nM	–	–	–	–	–
Cc1ncsc1-c1ccc([C@H](C)NC(=O)[C@@H]2C[C@@H](O)CN2C(=O)[C@@H](c2cc(N3CCN(CC4CCN(C[C@H]5C[C@H](Oc6cc(N7C8CCC7CN(c7cc(-c9ccccc9O)nnc7N)C8)ccn6)C5)CC4)CC3)no2)C(C)C)cc1	0.062 nM	1.4 nM	–	0.72 nM	10 nM	0.15	0.035	12 mL/min/kg	17 h	–	95%	83%	–	–	–
Cc1ncsc1-c1ccc([C@H](C)NC(=O)[C@@H]2C[C@@H](O)CN2C(=O)[C@@H](c2cc(N3CCN(CCN4CCC(O[C@H]5C[C@H](Oc6cc(N7C8CCC7CN(c7cc(-c9ccccc9O)nnc7N)C8)ccn6)C5)CC4)CC3)no2)C(C)C)cc1	0.085 nM	3.2 nM	38	1.3 nM	11 nM	0.4	0.034	9.6 mL/min/kg	13 h	108 nM	56%	28%	840 ng/g	–	–
